# Measured values as given in patent US20250144047A1, “PHARMACEUTICAL COMPOSITION FOR PREVENTING, AMELIORATING, OR TREATING CANCER CONTAINING 8-PARADOL” (KDBIO CORP., priority 2022, published 2025).
# Tests used:
# [1] = system: AGS xenograft tumor tissue; experiment: IHC staining of tumor tissue; format: in vivo; conditions: tumor tissue of administered mice
# Protocol: The tumor tissue was fixed with 10% formalin and embedded with paraffin. Immunohistochemical (IHC) staining was performed using a mouse and rabbit-specific HRP/DAB (ABC) detection IHC kit (Abcam, Cambridge, MA, USA). The tissue was observed through an optical microscope, and the presence of a specific protein in the tumor tissue was determined to be the presence of a brown yellow color. The results were evaluated using ImageJ software.
# [2] = design: species or system mice; conditions: mouse, in vivo, po, 5 mg/kg
# Protocol: Male nude mice (CAnN.Cg-Foxn1-nu, 4 weeks old, 20 g to 22 g) were purchased from OrientBio (Seongnam, Republic of Korea). The mice were placed in a chamber with conditions maintained at 23° C. and 50% humidity with a period of 12 hours of light and 12 hours of darkness. All animal experiments were conducted according to the National Institutes of Health's Laboratory Animal Care and Use Guidelines (NIH Publications No. 8023, revised 1996) and the Kyung Hee University's Animal Care and Use Guidelines ([…]-441, approval data: Sep. 28, 2021). […] The control group was administered with only 0.9% of general saline during this period. Body weights and tumor volumes of the mice were measured daily in all mice during the study period. All mice were euthanized after the end of the experiments. Blood, liver, spleen, kidney, and tumor tissues were extracted and weighed. In order to obtain the protein of tumor tissue, a portion of the tissue was processed with RIPA buffer containing a protease inhibitor cocktail. Then, the expression degree of a specific protein (determined by Western blot) was determined. […] Fuji Dri-Chem analyzer (3500, Fuji Photo Film Co., Osaka, Japan) was used to measure alanine aminotransferase (ALT), aspartate aminotransferase (AST), total bilirumin (T-Bili), total protein (TP), albumin (Alb), albumin/globulin (A/G) ratio, total cholesterol (T-Chol), total triglyceride (TG), glucose (GLU), and blood urea nitrogen (BUN) values.
# AGS cells = conditions: for dose at which significant toxicity to AGS cells was not exhibited: MTT; for IC50: read-out: IC50 on AGS cells, 24 hours, MTT assay; for dose at which significant toxicity to AGS cells was not exhibited / IC50: AGS cells
# Protocol: AGS cells were grown in RPMI medium containing 10% FBS and 1% PS. HEK293 and RAW264.7 cells were grown in DMEM medium containing 10% FBS and 1% PS under conditions of 37° C., 5% CO2 and 95% air.
# In order to evaluate toxicity to each cell, the sample was incubated in each cell (1×10^5 cells/well) cultured in the above manner for 24 hours, and then cytotoxicity to each cell was examined by using the MTT assay.
# [3] = system: AGS xenograft tumor tissue; experiment: Western blot of tumor tissue of xenograft mice; format: in vivo; conditions: tumor tissue, oral 5 mg/kg, compared to control group
# Protocol: For whole protein extraction, AGS cells were processed with samples at various concentrations for 24 hours. The cells were dissolved using Pierce™ RIPA buffer (Thermo Fisher Scientific, Rockford, IL, USA) together with protease inhibitor cocktail (GenDEPOT, TX, USA). The cell-dissolved solution formed in the above manner was centrifuged at 12,000 rpm for 20 minutes. The protein was loaded into a 10% SDS-PAGE gel using a protein gel electrophoresis chamber system and transferred to a PVDF membrane (Thermo Fisher Scientific, Rockford, IL, USA). A PBST solution containing 5% skim milk was used to block the membrane at 25° C. for 1 hour. Then, the membrane was incubated overnight at 4° C. with primary antibodies. Finally, the membrane was incubated with the secondary antibodies at 25° C. for 1 hour, and a protein band was detected using West-Q Pico ECL Solution (GenDEPOT, TX, USA). The results were quantified using ImageJ software.
# Each mouse was orally administered with 8-paradol and 5-FU once a day for a total of 16 days. The control group was administered with only 0.9% of general saline during this period. Body weights and tumor volumes of the mice were measured daily in all mice during the study period. All mice were euthanized after the end of the experiments. Blood, liver, spleen, kidney, and tumor tissues were extracted and weighed. In order to obtain the protein of tumor tissue, a portion of the tissue was processed with RIPA buffer containing a protease inhibitor cocktail. Then, the expression degree of a specific protein (determined by Western blot) was determined.
smiles,measurement,setting,value
"O=c1[nH]cc(F)c(=O)[nH]1 [5-FU, 5-fluorouracil]",density of LC3 and caspase-3 in tumor tissue,[1],increased
same,A/G (albumin/globulin),[2],0.52 ratio
same,ALT (alanine aminotransferase),[2],101.6 U/L
same,AST (aspartate aminotransferase),[2],204.9 U/L
same,Alb (albumin),[2],1.7 g/dL
same,BUN (blood urea nitrogen),[2],26.7 mg/dL
same,Crea (creatinine),[2],0.34 mg/dL
same,GLU (glucose),[2],56 mg/dL
same,T-Bili (total bilirubin),[2],0.08 mg/dL
same,T-Chol (total cholesterol),[2],124 mg/dL
same,TG (triglyceride),[2],34 mg/dL
same,TP (total protein),[2],5.1 g/dL
same,cytotoxicity to AGS cells,AGS cells,strong toxicity
same,"protein expressions of LC3, Pink1, Parkin, Bax, Cytochrome-c, cleaved-caspase-3/caspase-3, Cleaved-caspase-9/caspase-9, p62 and Bcl-2",[3],lower
"N#CC(C#N)=NNc1cccc(Cl)c1 [CCCP, carbonyl cyanide m-chlorophenylhydrazone, reference compound]",dose at which significant toxicity to AGS cells was not exhibited,AGS cells,less than 15 μM
"CCCCCCCC(=O)CCc1ccc(O)c(OC)c1 [Purified Compound 1, 6-paradol]",IC50,AGS cells,25.7 ± 1.87 µM
"CCCCC[C@H](O)CC(=O)CCc1ccc(O)c(OC)c1 [Purified Compound 2, 6-gingerol]",IC50,AGS cells,178 ± 2.51 µM
"CCCCCCC[C@H](O)CC(=O)CCc1ccc(O)c(OC)c1 [Purified Compound 4, 8-gingerol]",IC50,AGS cells,33.2 ± 1.21 µM
"CCCCCCCCC[C@H](O)CC(=O)CCc1ccc(O)c(OC)c1 [Purified Compound 5, 10-gingerol]",IC50,AGS cells,16.1 ± 2.32 µM
"CCCCC/C=C/C(=O)CCc1ccc(O)c(OC)c1 [Purified Compound 6, 6-shogaol]",IC50,AGS cells,32.9 ± 2.26 µM
"CCCCCCC/C=C/C(=O)CCc1ccc(O)c(OC)c1 [Purified Compound 7, 8-shogaol]",IC50,AGS cells,45.6 ± 3.6 µM
"CCCCCCCCC/C=C/C(=O)CCc1ccc(O)c(OC)c1 [Purified Compound 8, 10-shogaol]",IC50,AGS cells,64.5 ± 1.98 µM
"CO[C@H]1C[C@@H]2CC[C@@H](C)[C@@](O)(O2)C(=O)C(=O)N2CCCC[C@H]2C(=O)O[C@H]([C@H](C)C[C@@H]2CC[C@@H](O)[C@H](OC)C2)CC(=O)[C@H](C)/C=C(\C)[C@@H](O)[C@@H](OC)C(=O)[C@H](C)C[C@H](C)/C=C/C=C/C=C/1C [rapamycin, reference compound]",dose at which significant toxicity to AGS cells was not exhibited,AGS cells,less than 6 μM
